Data on 14 compounds can be found in ChEMBL document CHEMBL4229547, “Design, synthesis and biological mechanisms research on 1,2,3-triazole derivatives of Jiyuan Oridonin A” (Bioorg Med Chem, 2018).

Type in all cases: functional, cell-based
One assay relates to MGC-803. Put plainly: Antiproliferative activity against human MGC803 cells after 48 hrs by MTT assay. As to conditions: MGC-803, 48 h.
In a further assay the test system is HGC-27. The experiment in a line: Antiproliferative activity against human HGC27 cells after 48 hrs by MTT assay. As to conditions: HGC-27, 48 h.
For a further assay, the system named is PC-3. Put plainly: Antiproliferative activity against human PC3 cells after 48 hrs by MTT assay. To be noted: PC-3, 48 h. On the technique in general: Tetrazolium dyes change colour on reduction, which living cells bring about.
A further assay deals with EC9706. Put plainly: Antiproliferative activity against human EC9706 cells after 48 hrs by MTT assay. To be noted: EC9706, 48 h.
A further assay deals with SMMC-7721. The experiment in a line: Antiproliferative activity against human SMMC7721 cells after 48 hrs by MTT assay. To be noted: SMMC-7721, 48 h.
A further assay deals with MCF7. Put plainly: Antiproliferative activity against human MCF7 cells after 48 hrs by MTT assay. To be noted: MCF7, 48 h.
Another assay relates to ECa-109 cell line. Put plainly: Antiproliferative activity against human ECA109 cells after 48 hrs by MTT assay. As to conditions: ECa-109, 48 h.

Broadly, the IC50 is the concentration that inhibits the measured activity by half. Read a low IC50 as greater potency. On to `C=C1C(=O)[C@]23[C@H](O)[C@H]1CC[C@H]2[C@@]12CO[C@]3(O)[C@@H](O)[C@@H]1C(C)(C)CC[C@@H]2O` [ORIDONIN], for which the IC50 came to 33.1 µM with MGC-803; 32 µM in the assay on HGC-27; 27.6 µM with PC-3; 38.4 µM in the assay with EC9706; 54 µM in the assay on SMMC-7721; 74.2 µM in the assay with MCF7. The compound also showed a concentration for half-maximal inhibition (IC50) in the assay on ECa-109 cell line of 31.8 µM.

For `C=C1C(=O)[C@]23[C@H](O)[C@H]1C[C@H](O)[C@H]2[C@]12CCCC(C)(C)[C@H]1C[C@H]3O[C@@H]2OCCc1cn(Cc2ccc(Cl)c(Cl)c2)nn1`, the IC50 with EC9706 came out at 4.21 µM; in the assay on SMMC-7721, 3.76 µM; with MCF7 it was 6.85 µM; in the assay on ECa-109 cell line it was 2.58 µM.

In the case of `C=C1C(=O)[C@]23[C@H](O)[C@H]1C[C@H](O)[C@H]2[C@]12CCCC(C)(C)[C@H]1C[C@H]3O[C@@H]2OCCn1cc(CCCC)nn1`, the IC50 in the assay with EC9706 came to 8.29 µM; in the assay with SMMC-7721, 11 µM; with MCF7, 13.4 µM; in the assay with ECa-109 cell line, 4.45 µM.

With `C=C1C(=O)[C@]23[C@H](O)[C@H]1C[C@H](O)[C@H]2[C@]12CCCC(C)(C)[C@H]1C[C@H]3O[C@@H]2OCCc1cn(Cc2ccc(OC)cc2)nn1`, the IC50 with MGC-803 stood at 4.79 µM; with PC-3 it was 4.95 µM; in the assay with EC9706, 4.67 µM; in the assay on SMMC-7721, 4.81 µM; with MCF7 it was 7.81 µM; with ECa-109 cell line, 2.57 µM.

As to `C=C1C(=O)[C@]23[C@H](O)[C@H]1C[C@H](O)[C@H]2[C@]12CCCC(C)(C)[C@H]1C[C@H]3O[C@@H]2OCCn1cc(C2CC2)nn1`, the IC50 was 4.58 µM in the assay on MGC-803; 3.79 µM in the assay with PC-3; 11.4 µM in the assay on EC9706; 9.66 µM with SMMC-7721; 11 µM in the assay with MCF7; 4.3 µM in the assay with ECa-109 cell line.

`C=C1C(=O)[C@]23[C@H](O)[C@H]1C[C@H](O)[C@H]2[C@]12CCCC(C)(C)[C@H]1C[C@H]3O[C@@H]2OCCc1cn(Cc2cc(OC)c(OC)c(OC)c2)nn1`: the IC50 in the assay with EC9706 was 9.5 µM; with SMMC-7721 it was 9.03 µM; with MCF7, 8.79 µM; in the assay on ECa-109 cell line, 4.51 µM.

Consider `C=C1C(=O)[C@]23[C@H](O)[C@H]1C[C@H](O)[C@H]2[C@]12CCCC(C)(C)[C@H]1C[C@H]3O[C@@H]2OCCc1cn(Cc2ccc(C)cc2)nn1`, for which the IC50 with MGC-803 is 3.89 µM; in the assay with PC-3 it was 4.9 µM; in the assay on EC9706 it was 6.1 µM; in the assay on SMMC-7721, 5.68 µM; in the assay on MCF7, 7.86 µM; with ECa-109 cell line, 2.12 µM.

With `C=C1C(=O)[C@]23[C@H](O)[C@H]1C[C@H](O)[C@H]2[C@]12CCCC(C)(C)[C@H]1C[C@H]3O[C@@H]2OCCc1cn(Cc2ccc(F)cc2)nn1`, the IC50 with EC9706 was determined as 4.5 µM; in the assay with SMMC-7721, 5.88 µM; in the assay on MCF7, 6.62 µM; with ECa-109 cell line, 3.68 µM.

For the compound `C=C1C(=O)[C@]23[C@H](O)[C@H]1C[C@H](O)[C@H]2[C@]12CCCC(C)(C)[C@H]1C[C@H]3O[C@@H]2OCCn1cc(-c2ccccc2)nn1`, the IC50 in the assay on MGC-803 is 9.62 µM; in the assay on PC-3, 11.2 µM; in the assay with EC9706, 5.32 µM; with SMMC-7721 it was 6.07 µM; with MCF7 it was 8.95 µM; in the assay on ECa-109 cell line it was 4.26 µM.

For the compound `C#CCO[C@H]1O[C@@H]2C[C@@H]3C(C)(C)CCC[C@]13[C@@H]1[C@@H](O)C[C@H]3C(=C)C(=O)[C@@]21[C@@H]3O`, the IC50 in the assay with MGC-803 is 3.77 µM; in the assay on PC-3, 3.92 µM; in the assay with EC9706 it was 7.87 µM; with SMMC-7721 it was 15.3 µM; in the assay on MCF7, 14.6 µM; in the assay on ECa-109 cell line, 10.8 µM.

Regarding `C=C1C(=O)[C@]23[C@H](O)[C@H]1C[C@H](O)[C@H]2[C@]12CCCC(C)(C)[C@H]1C[C@H]3O[C@@H]2OCCc1cn(Cc2ccc([N+](=O)[O-])cc2)nn1`, the IC50 in the assay on EC9706 was 7.78 µM; in the assay on SMMC-7721, 3.8 µM; in the assay on MCF7, 6.45 µM; in the assay with ECa-109 cell line, 4.13 µM.

`C=C1C(=O)[C@]23[C@H](O)[C@H]1C[C@H](O)[C@H]2[C@]12CCCC(C)(C)[C@H]1C[C@H]3OC2OCCN=[N+]=[N-]` (single isomer, unassigned): the IC50 amounted to 11.9 µM in the assay with MGC-803; 12.3 µM with PC-3; 8.71 µM with EC9706; 10 µM in the assay with SMMC-7721; 1.6 µM with MCF7; 6.08 µM in the assay with ECa-109 cell line.

Turning to `C=C1C(=O)[C@]23[C@H](O)[C@H]1C[C@H](O)[C@H]2[C@]12CCCC(C)(C)[C@H]1C[C@H]3O[C@@H]2OCCc1cn(Cc2ccccc2)nn1`, the IC50 stood at 7.54 µM in the assay on EC9706, 5.79 µM with SMMC-7721, 9.45 µM in the assay on MCF7 and 3.51 µM in the assay on ECa-109 cell line.

With `C=C1C(=O)[C@]23[C@H](O)[C@H]1C[C@H](O)[C@H]2[C@]12CCCC(C)(C)[C@H]1C[C@H]3O[C@H]2O`, the IC50 was found to be 14.7 µM with MGC-803; 15 µM with PC-3; 22.5 µM in the assay on EC9706; 20.2 µM in the assay on SMMC-7721; 22.9 µM in the assay on MCF7; 20.7 µM with ECa-109 cell line.
